The results in this text go back to US7452887B2, “Quinoline- and isoquinoline-based compounds exhibiting ATP-utilizing enzyme inhibitory activity, and compositions, and uses thereof” (Amphora Discovery Corporation, priority 2004, dated 2008).

Common to all, as to test: HTS ATP-utilizing enzyme assay, off-chip mobility-shift (Caliper HTS 250)
Type in all cases: biochemical
Holding throughout (conditions): test compound 10 μM, kinase listed = active (greater than six-sigma from the mean activity of inactive compounds)

One assay concerns the target T1, NEK2 (Homo sapiens, UniProt P51955).
T1 sequence (P51955 1-445): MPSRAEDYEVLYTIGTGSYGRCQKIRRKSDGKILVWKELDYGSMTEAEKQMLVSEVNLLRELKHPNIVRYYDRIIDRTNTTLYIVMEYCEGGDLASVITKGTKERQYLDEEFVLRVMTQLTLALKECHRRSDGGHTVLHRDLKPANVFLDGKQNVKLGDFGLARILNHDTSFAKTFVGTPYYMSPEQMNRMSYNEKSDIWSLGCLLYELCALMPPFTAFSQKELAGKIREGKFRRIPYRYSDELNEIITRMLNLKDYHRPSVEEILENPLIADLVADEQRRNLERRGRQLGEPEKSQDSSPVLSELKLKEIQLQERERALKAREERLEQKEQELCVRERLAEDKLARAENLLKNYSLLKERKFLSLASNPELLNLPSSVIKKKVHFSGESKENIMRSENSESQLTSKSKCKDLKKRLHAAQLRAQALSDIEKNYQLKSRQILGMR
Put shortly: (§1)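 Single-point screen, 10 μM compound; kinase + peptide substrate, HEPES pH 7.5/Triton X-100/BSA; 2.5 hrs, 20–22° C.; EDTA stop. Readout: substrate vs phosphoproduct ratio by off-chip mobility shift. Hits called at six-sigma limits.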

In another assay the target is KIT (Homo sapiens, UniProt P10721). Put shortly: as §1
Sequence of KIT (P10721 26-976): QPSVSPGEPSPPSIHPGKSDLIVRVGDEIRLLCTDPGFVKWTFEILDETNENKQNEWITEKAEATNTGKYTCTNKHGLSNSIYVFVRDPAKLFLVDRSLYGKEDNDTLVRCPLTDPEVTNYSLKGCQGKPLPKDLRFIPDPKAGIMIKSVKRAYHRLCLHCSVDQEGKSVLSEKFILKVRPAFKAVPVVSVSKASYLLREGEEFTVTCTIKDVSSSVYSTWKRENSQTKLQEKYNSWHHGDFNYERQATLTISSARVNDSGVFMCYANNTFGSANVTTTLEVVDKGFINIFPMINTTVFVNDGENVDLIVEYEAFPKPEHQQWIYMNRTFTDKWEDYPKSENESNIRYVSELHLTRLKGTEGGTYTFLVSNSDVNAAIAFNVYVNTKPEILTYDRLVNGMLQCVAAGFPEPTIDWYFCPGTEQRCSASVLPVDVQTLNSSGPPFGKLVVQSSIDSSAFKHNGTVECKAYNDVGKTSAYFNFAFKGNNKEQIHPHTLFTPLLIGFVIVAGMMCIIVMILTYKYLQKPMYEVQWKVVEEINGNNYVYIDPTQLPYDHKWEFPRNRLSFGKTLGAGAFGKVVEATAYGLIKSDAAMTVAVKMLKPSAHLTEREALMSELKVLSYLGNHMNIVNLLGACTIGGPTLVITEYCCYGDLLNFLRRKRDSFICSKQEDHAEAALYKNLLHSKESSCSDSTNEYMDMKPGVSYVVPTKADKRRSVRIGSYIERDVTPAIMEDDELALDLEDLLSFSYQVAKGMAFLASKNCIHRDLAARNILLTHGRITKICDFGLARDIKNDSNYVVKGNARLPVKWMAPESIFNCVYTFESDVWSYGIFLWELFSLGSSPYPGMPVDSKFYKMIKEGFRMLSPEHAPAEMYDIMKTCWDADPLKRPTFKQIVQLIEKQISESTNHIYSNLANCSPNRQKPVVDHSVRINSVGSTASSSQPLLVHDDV
The target of a further assay is T2, BMX (Homo sapiens, UniProt P51813).
T2 sequence (P51813 1-675): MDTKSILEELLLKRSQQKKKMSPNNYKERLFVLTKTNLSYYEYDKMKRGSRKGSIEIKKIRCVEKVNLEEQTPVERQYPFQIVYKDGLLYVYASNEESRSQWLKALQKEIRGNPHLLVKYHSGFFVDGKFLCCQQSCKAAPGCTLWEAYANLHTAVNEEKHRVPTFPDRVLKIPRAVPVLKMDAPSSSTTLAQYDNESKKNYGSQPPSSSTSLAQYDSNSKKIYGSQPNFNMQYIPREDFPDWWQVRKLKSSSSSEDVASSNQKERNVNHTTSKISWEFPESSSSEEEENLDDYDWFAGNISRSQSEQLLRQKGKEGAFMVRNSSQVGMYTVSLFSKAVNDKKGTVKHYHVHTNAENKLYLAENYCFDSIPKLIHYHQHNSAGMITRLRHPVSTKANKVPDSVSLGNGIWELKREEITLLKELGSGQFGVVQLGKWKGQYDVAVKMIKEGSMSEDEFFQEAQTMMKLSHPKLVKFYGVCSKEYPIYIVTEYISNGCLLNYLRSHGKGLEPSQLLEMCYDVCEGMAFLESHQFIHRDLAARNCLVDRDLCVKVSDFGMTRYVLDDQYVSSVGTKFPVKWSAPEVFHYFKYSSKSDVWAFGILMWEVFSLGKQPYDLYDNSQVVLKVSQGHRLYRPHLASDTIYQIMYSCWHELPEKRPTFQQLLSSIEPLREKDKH
Put shortly: as §1

In the case of `CN1CCN(c2ccc(Nc3ccnc4ccc(-c5ccc(F)cc5)cc34)cc2)CC1` [6-(4-fluorophenyl)-N-(4-(4-methylpiperazin-1-yl)phenyl)quinolin-4-amine], the Activity entry on NEK2 is recorded as “NEK2”.
Turning to `COc1ccc(-c2ccc3nccc(Nc4ccc(N5CCNCC5)cc4)c3c2)cc1` [6-(4-methoxyphenyl)-N-(4-(piperazin-1-yl)phenyl)quinolin-4-amine], the Activity entry on KIT is on record as “KIT”.
For the compound `COc1ccc(-c2ccc3nccc(N(C)c4ccc(N5CCN(C)CC5)cc4)c3c2)cc1` [6-(4-methoxyphenyl)-N-methyl-N-(4-(4-methylpiperazin-1-yl)phenyl)quinolin-4-amine], the values for the Activity entry at KIT and on BMX were “KIT” and “BMX”, respectively.
As to `c1ccc(-c2ccc3nccc(Nc4ccc(N5CCNCC5)cc4)c3c2)cc1` [6-phenyl-N-(4-(piperazin-1-yl)phenyl)quinolin-4-amine], the Activity result on KIT is listed as “KIT”.
`CN1CCN(c2ccc(Nc3ccnc4ccc(-c5cccc6ccccc56)cc34)cc2)CC1` [N-(4-(4-methylpiperazin-1-yl)phenyl)-6-(naphthalen-1-yl)quinolin-4-amine]: the Activity result was “NEK2” at NEK2, “KIT” at KIT and “BMX” on BMX.
For `CN1CCN(c2ccc(Nc3ccnc4ccc(-c5ccc6ccccc6c5)cc34)cc2)CC1` [N-(4-(4-methylpiperazin-1-yl)phenyl)-6-(naphthalen-2-yl)quinolin-4-amine], the Activity result on NEK2 is “NEK2”; on BMX, “BMX”.
Take `CN1CCN(c2ccc(Nc3ccnc4ccc(-c5ccncc5)cc34)cc2)CC1` [N-(4-(4-methylpiperazin-1-yl)phenyl)-6-(pyridin-4-yl)quinolin-4-amine]: the Activity result at NEK2 was “NEK2”; at KIT it was “KIT”.
Turning to `Cc1ccccc1-c1ccc2nccc(Nc3ccc(N4CCN(C)CC4)cc3)c2c1` [N-(4-(4-methylpiperazin-1-yl)phenyl)-6-o-tolylquinolin-4-amine], the Activity entry on NEK2 was “NEK2”; on BMX it was “BMX”.
